ChEMBL document CHEMBL4330134, “Design, synthesis, and bioevaluation of a novel class of (E)-4-oxo-crotonamide derivatives as potent antituberculosis agents” (Bioorg Med Chem Lett, 2019)
Values after ≈ are worked out from the molar mass of the structure shown.

Columns and labels:
[1] = system: Mycobacterium tuberculosis; assay: Antimycobacterial activity against Mycobacterium tuberculosis H37Rv ATCC 27294 after 4 days by microplate Alamar blue assay; format: functional; details: H37Rv ATCC 27294, 96 h
[2] = system: Mycobacterium tuberculosis; assay: Antimycobacterial activity against Mycobacterium tuberculosis H37Rv ATCC 27294; format: functional
[3] = Toxicity in po dosed BALB/c mouse; format: organism-based; details: in vivo
[4] = system: Mycobacterium tuberculosis; assay: Antimycobacterial activity against Mycobacterium tuberculosis isolate 19809 after 4 days by microplate Alamar blue assay; format: functional; details: isolate 19809, 96 h
[5] = system: Mycobacterium tuberculosis; assay: Antimycobacterial activity against Mycobacterium tuberculosis isolate 19852 after 4 days by microplate Alamar blue assay; format: functional; details: isolate 19852, 96 h
[6] = system: Mycobacterium tuberculosis; assay: Antimycobacterial activity against Mycobacterium tuberculosis isolate 19874 after 4 days by microplate Alamar blue assay; format: functional; details: isolate 19874, 96 h
[7] = system: Mycobacterium tuberculosis; assay: Antimycobacterial activity against Mycobacterium tuberculosis isolate 19769 after 4 days by microplate Alamar blue assay; format: functional; details: isolate 19769, 96 h
[8] = system: Mycobacterium tuberculosis; assay: Antimycobacterial activity against Mycobacterium tuberculosis isolate 19675 after 4 days by microplate Alamar blue assay; format: functional; details: isolate 19675, 96 h
[9] = system: Mycobacterium tuberculosis; assay: Antimycobacterial activity against Mycobacterium tuberculosis isolate 19863 after 4 days by microplate Alamar blue assay; format: functional; details: isolate 19863, 96 h
[10] = system: Mycobacterium tuberculosis; assay: Antimycobacterial activity against Mycobacterium tuberculosis isolate 19805 after 4 days by microplate Alamar blue assay; format: functional; details: isolate 19805, 96 h
[11] = system: Mycobacterium tuberculosis; assay: Antimycobacterial activity against Mycobacterium tuberculosis isolate 19806 after 4 days by microplate Alamar blue assay; format: functional; details: isolate 19806, 96 h
[12] = system: Mycobacterium tuberculosis; assay: Antimycobacterial activity against Mycobacterium tuberculosis isolate 19810 after 4 days by microplate Alamar blue assay; format: functional; details: isolate 19810, 96 h
[13] = system: Mycobacterium tuberculosis; assay: Antimycobacterial activity against Mycobacterium tuberculosis isolate 11168 after 4 days by microplate Alamar blue assay; format: functional; details: isolate 11168, 96 h

SMILES | MIC [1] [µg/mL] | further results
O=C(O)/C=C/C(=O)c1ccccc1 | > 4 | 
O=C(O)/C=C/C(=O)c1ccc(Br)cc1 | > 4 | 
O=C(O)/C=C/C(=O)c1ccc(Cl)cc1Cl | > 4 | 
COc1ccc(C(=O)/C=C/C(=O)O)cc1 | > 4 | 
COC(=O)/C=C/C(=O)c1ccccc1 | 0.86 (≈ 4.52 µM) | 
CCOC(=O)/C=C/C(=O)c1ccccc1 | 0.82 (≈ 4.02 µM) | 
COC(=O)/C=C/C(=O)c1ccc(OC)cc1 | 0.25 (≈ 1.14 µM) | MIC [2]: 0.25 µg/mL (≈ 1.14 µM); LD50 [3]: 568 mg/kg
O=C(O)/C=C/C(=O)c1ccc(-c2ccccc2)cc1 | > 4 | 
CCOC(=O)/C=C/C(=O)c1ccc(OCC)cc1 | 0.54 (≈ 2.17 µM) | 
CCOC(=O)/C=C/C(=O)c1cc(OC)ccc1OC | 1.05 (≈ 3.97 µM) | 
COc1cccc(C(=O)/C=C/C(=O)O)c1 | > 4 | 
CN(C)C(=O)/C=C/C(=O)c1ccc(-c2ccccc2)cc1 | 0.125 (≈ 0.447 µM) | MIC [4]: 0.48 µg/mL (≈ 1.72 µM); MIC [5]: 0.19 µg/mL (≈ 0.68 µM); MIC [6]: 0.23 µg/mL (≈ 0.823 µM); MIC [7]: 0.43 µg/mL (≈ 1.54 µM); MIC [8]: 0.45 µg/mL (≈ 1.61 µM); MIC [9]: 0.23 µg/mL (≈ 0.823 µM); MIC [10]: 0.25 µg/mL (≈ 0.895 µM); MIC [11]: 0.23 µg/mL (≈ 0.823 µM); MIC [12]: 0.12 µg/mL (≈ 0.43 µM); MIC [13]: 0.05 µg/mL (≈ 0.179 µM)
COc1ccc(C(=O)/C=C/C(=O)O)cc1OC | > 4 | 
COC(=O)/C=C/C(=O)c1ccc2c(c1)CCO2 | 0.84 (≈ 3.62 µM) | 
COC(=O)/C=C/C(=O)C1CCCCC1 | 1.2 (≈ 6.11 µM) | 
COC(=O)/C=C/C(=O)c1ccc(C)cc1 | 0.37 (≈ 1.81 µM) | 
COC(=O)/C=C/C(=O)c1ccc(-c2ccccc2)cc1 | 0.2 (≈ 0.751 µM) | 
COC(=O)/C=C/C(=O)c1cccc(OC)c1 | 0.39 (≈ 1.77 µM) | 
Cc1ccc(C(=O)/C=C/C(=O)OC(C)C)cc1 | 0.77 (≈ 3.31 µM) | 
COc1ccc(OC)c(C(=O)/C=C/C(=O)O)c1 | > 4 | 
CCOC(=O)/C=C/C(=O)c1ccc(OCc2ccccc2)cc1 | 0.96 (≈ 3.09 µM) | 
CCOC(=O)/C=C/C(=O)c1ccc(-c2ccccc2)cc1 | 0.23 (≈ 0.82 µM) | 
COC(=O)/C=C/C(=O)c1ccc(Oc2ccccc2)cc1 | 0.87 (≈ 3.08 µM) | 
COC(=O)/C=C/C(=O)c1cc(OC)ccc1OC | 0.88 (≈ 3.52 µM) | 
COC(=O)/C=C/C(=O)C1CC1 | > 4 | 

SMILES | MIC [1] [µg/mL] | further results
CCOC(=O)/C=C/C(=O)c1cccc2ccccc12 | 0.61 (≈ 2.4 µM) | 
COc1ccccc1C(=O)/C=C/C(=O)OC(C)C | 1.91 (≈ 7.69 µM) | 
COC(=O)/C=C/C(=O)c1cccc2ccccc12 | 0.45 (≈ 1.87 µM) | 
COC(=O)/C=C/C(=O)c1ccc(OCc2ccccc2)cc1 | 0.67 (≈ 2.26 µM) | 
CCOC(=O)/C=C/C(=O)c1ccc([N+](=O)[O-])cc1 | 0.48 (≈ 1.93 µM) | 
CC(C)OC(=O)/C=C/C(=O)c1ccccc1 | 0.78 (≈ 3.57 µM) | 
CCOC(=O)/C=C/C(=O)c1cccc(OC)c1 | 0.82 (≈ 3.5 µM) | 
CCOC(=O)/C=C/C(=O)c1ccc(OC)c(OC)c1 | 0.82 (≈ 3.1 µM) | 
O=C(O)/C=C/C(=O)c1ccc([N+](=O)[O-])cc1 | > 4 | 
Cc1ccc(C(=O)/C=C/C(=O)O)cc1 | > 4 | 
COc1ccc(OC)c(C(=O)/C=C/C(=O)OC(C)C)c1 | 1.48 (≈ 5.32 µM) | 
CCOC(=O)/C=C/C(=O)c1ccccc1OC | 1.82 (≈ 7.77 µM) | 
O=C(O)/C=C/C(=O)C1CC1 | > 4 | 
COc1cccc(C(=O)/C=C/C(=O)OC(C)C)c1 | 0.92 (≈ 3.71 µM) | 
COC(=O)/C=C/C(=O)c1ccccc1OC | 0.99 (≈ 4.5 µM) | 
COC(=O)/C=C/C(=O)c1ccc(OC)c(OC)c1 | 0.44 (≈ 1.76 µM) | 
COC(=O)/C=C/C(=O)c1ccc(Br)cc1 | 0.49 (≈ 1.82 µM) | 
CCOC(=O)/C=C/C(=O)c1ccc(Br)cc1 | 0.52 (≈ 1.84 µM) | 
CCOC(=O)/C=C/C(=O)C1CCCCC1 | > 4 | 
CCOC(=O)/C=C/C(=O)c1ccc2c(c1)OCO2 | 0.49 (≈ 1.97 µM) | 
COc1ccc(C(=O)/C=C/C(=O)OC(C)C)cc1 | 1.64 (≈ 6.61 µM) | 
CCOc1ccc(C(=O)/C=C/C(=O)OC)cc1 | 0.41 (≈ 1.75 µM) | 
O=C(O)/C=C/C(=O)c1ccc2c(c1)OCO2 | > 4 | 
CCOC(=O)/C=C/C(=O)c1ccc(OC)cc1 | 0.46 (≈ 1.96 µM) | 
O=C(O)/C=C/C(=O)c1ccc2c(c1)CCO2 | > 4 | 

SMILES | MIC [1] [µg/mL] | further results
O=C(O)/C=C/C(=O)c1ccc(OCc2ccccc2)cc1 | > 4 | 
CC(=O)/C=C/C(=O)O | > 4 | 
O=C(O)/C=C/C(=O)C1CCCCC1 | > 4 | 
COc1ccccc1C(=O)/C=C/C(=O)O | > 4 | 
CCOC(=O)/C=C/C(=O)c1ccc2c(c1)CCO2 | 0.94 (≈ 3.82 µM) | 
CCOc1ccc(C(=O)/C=C/C(=O)O)cc1 | > 4 | 
CCOC(=O)/C=C/C(=O)C1CC1 | > 4 | 
CCOc1ccc(C(=O)/C=C/C(=O)OC(C)C)cc1 | 0.47 (≈ 1.79 µM) | 
CCOC(=O)/C=C/C(=O)c1ccc(C)cc1 | > 4 | 
COc1ccc(C(=O)/C=C/C(=O)OC(C)C)cc1OC | 1.94 (≈ 6.97 µM) | 
CCOC(=O)/C=C/C(C)=O | 3.51 (≈ 24.7 µM) | 
O=C(O)/C=C/C(=O)c1ccc(Oc2ccccc2)cc1 | > 4 | 
COC(=O)/C=C/C(C)=O | 0.86 (≈ 6.71 µM) | 
CCOC(=O)/C=C/C(=O)c1ccco1 | 1.09 (≈ 5.61 µM) | 
CCOC(=O)/C=C/C(=O)c1ccc(Oc2ccccc2)cc1 | 1.52 (≈ 5.13 µM) | 
CCOC(=O)/C=C/C(=O)c1ccc(Cl)cc1Cl | 1.09 (≈ 3.99 µM) | 
COC(=O)/C=C/C(=O)c1ccco1 | 0.52 (≈ 2.89 µM) | 
O=C(O)/C=C/C(=O)c1ccco1 | > 4 | 
COC(=O)/C=C/C(=O)c1ccc2c(c1)OCO2 | 0.38 (≈ 1.62 µM) | 
O=C(O)/C=C/C(=O)c1cccc2ccccc12 | > 4 | 
COC(=O)/C=C/C(=O)c1ccc(Cl)cc1Cl | 1.85 (≈ 7.14 µM) | 
COC(=O)/C=C/C(=O)c1ccc([N+](=O)[O-])cc1 | 0.54 (≈ 2.3 µM) | 
NNC(=O)c1ccncc1 [ISONIAZID] | 0.025 (≈ 0.182 µM) | 
